{"source": "patent US9216957B2", "about": "“Androgen receptor antagonists and uses thereof” (SUZHOU KINTOR PHARMACEUTICALS, INC., priority 2011, dated 2015)", "system": "Prostate-specific antigen (PSA) production in LNCaP cells", "assay": "PSA Assay (inhibition of PSA production in prostate cancer cells, ELISA)", "format": "cell-based, human", "settings": "Homo sapiens", "experimental": "PSA Assay (Inhibition Test of the Compound of the Present Invention on Prostate-Specific Antigen (PSA) Production in Various Prostate Cancer Cells).\nAndrogen dependent LNCaP cells were purchased from the American Type Culture Collection (ATCC, Manassas, Va.). These cells were grown in RPMI 1640 medium supplemented with 10% fetal bovine serum (FBS), 100 U/mL penicillin, 100 μg/mL streptomycin, and 0.25 μg/mL amphotericin B. The cells were maintained at 37° C. and 5% CO2. LNCaP cells between passage 20 and 35 were used for experiments. LNCaP is a hormone sensitive cell line. For the PSA assay, human prostate cancer cells LNCaP were seeded in a 96-well plate at a concentration of 5000 cells/100 μl/well. On the following day, Methyltrienolone (R1881, AR agonist) (final concentration 1 ng/ml), test compounds or bicalutamide (Casodex®, AstraZeneca) (final concentration 0.005 to 20 μM) were added. Three days after the addition, the concentration of PSA in the supernatant of the culture solution was measured by ELISA. ELISAs for human PSA in culture medium were performed using the ultra-sensitive assay procedure and reagents in the Active™ PSA assay kit (Diagnostic Systems Laboratories Inc., Webster, Tex.). Culture medium and standards (200 μl/well) were incubated in antibody-coated plates for 2 h at room temperature on a Titer plate shaker at 500-600 rpm. Wells were then washed five times. The HRP conjugate was diluted 1:20 with assay buffer, and 100 μl was added to all wells. The plates were incubated for 30 min at room temperature on the shaker and washed as before, and 100 μl TMB (3,3′,5,5′-tetramethylbenzidine, 0.4 g/l) was added. The plates were incubated for 10 min on the shaker, and the reaction was terminated with 100 μl stop solution. The plates were read using a plate reader at 450 nm with a 650 nm reference filter. PSA levels were normalized for differences in growth of LNCaP cells following various treatments as determined by the MTS assay. IC50 of PSA was calculated based on a seven point assay (concentrations of tested compound) and expressed as micromolar (uM).", "key": {"[1]": {"settings": "LNCaP, 72 h, read-out: LNCAP IC50 (uM), inhibition of PSA production, LNCaP cells, R1881 1 ng/ml, three days, seven point assay"}}, "note": "Where two headings read alike, the source gives them in different places.", "data": [{"compound": "CC(O)(CS(=O)(=O)c1ccc(F)cc1)C(=O)Nc1ccc(C#N)c(C(F)(F)F)c1", "note": "(stereo not drawn) [Bicalutamide, reference compound]", "values": [{"measurement": "IC50", "setting": "LNCaP cells, read-out: IC50 of inhibition of PSA production in LNCaP cells", "result": 3.1, "unit": "µM"}]}, {"compound": "COC(=O)CCCc1ccc(N2C(=S)N(c3ccc(C#N)c(Cl)c3F)C(=O)C2(C)C)cc1", "note": "[Example 1, methyl 4-(4-(3-(3-chloro-4-cyano-2-fluorophenyl)-5,5-dimethyl-4-oxo-2-thioxoimidazolidin-1-yl)phenyl)butanoate]", "values": [{"measurement": "IC50", "setting": "[1]", "result": 1.34, "unit": "µM"}]}, {"compound": "COC(=O)CCCc1ccc(N2C(=S)N(c3ccc(C#N)c(C(F)(F)F)c3F)C(=O)C2(C)C)cc1", "note": "[Example 2, methyl 4-(4-(3-(4-cyano-2-fluoro-3-(trifluoromethyl)phenyl)-5,5-dimethyl-4-oxo-2-thioxoimidazolidin-1-yl)phenyl)butanoate]", "values": [{"measurement": "IC50", "setting": "[1]", "result": 1.45, "unit": "µM"}]}, {"compound": "COC(=O)CCc1ccc(N2C(=S)N(c3ccc(C#N)c(C(F)(F)F)c3F)C(=O)C2(C)C)cc1", "note": "[Example 3, methyl 3-(4-(3-(4-cyano-2-fluoro-3-(trifluoromethyl)phenyl)-5,5-dimethyl-4-oxo-2-thioxoimidazolidin-1-yl)phenyl)propanoate]", "values": [{"measurement": "IC50", "setting": "[1]", "result": 7.83, "unit": "µM"}]}, {"compound": "CNC(=O)CCc1ccc(N2C(=S)N(c3ccc(C#N)c(C(F)(F)F)c3F)C(=O)C2(C)C)cc1", "note": "[Example 4, 3-(4-(3-(4-cyano-2-fluoro-3-(trifluoromethyl)phenyl)-5,5-dimethyl-4-oxo-2-thioxoimidazolidin-1-yl)phenyl)-N-methylpropanamide]", "values": [{"measurement": "IC50", "setting": "[1]", "result": 14.4, "unit": "µM"}]}, {"compound": "CNC(=O)CCCc1ccc(N2C(=S)N(c3ccc(C#N)c(C(F)(F)F)c3F)C(=O)C2(C)C)cc1", "note": "[Example 5, 4-(4-(3-(4-cyano-2-fluoro-3-(trifluoromethyl)phenyl)-5,5-dimethyl-4-oxo-2-thioxoimidazolidin-1-yl)phenyl)-N-methylbutanamide]", "values": [{"measurement": "IC50", "setting": "[1]", "result": 0.37, "unit": "µM"}]}, {"compound": "CNC(=O)CCCc1ccc(N2C(=S)N(c3cc(C(F)(F)F)c(C#N)cc3F)C(=O)C2(C)C)cc1", "note": "[Example 6, 4-(4-(3-(4-cyano-2-fluoro-5-(trifluoromethyl)phenyl)-5,5-dimethyl-4-oxo-2-thioxoimidazolidin-1-yl)phenyl)-N-methylbutanamide]", "values": [{"measurement": "IC50", "setting": "[1]", "result": 4.75, "unit": "µM"}]}, {"compound": "CNC(=O)CCCc1ccc(N2C(=S)N(c3ccc(C#N)c(Cl)c3F)C(=O)C2(C)C)cc1", "note": "[Example 7, 4-(4-(3-(3-chloro-4-cyano-2-fluorophenyl)-5,5-dimethyl-4-oxo-2-thioxoimidazolidin-1-yl)phenyl)-N-methylbutanamide]", "values": [{"measurement": "IC50", "setting": "[1]", "result": 0.65, "unit": "µM"}]}, {"compound": "CC1(C)C(=O)N(c2ccc(C#N)c(C(F)(F)F)c2F)C(=S)N1c1ccc(CCCC(N)=O)cc1", "note": "[Example 8, 4-(4-(3-(4-cyano-2-fluoro-3-(trifluoromethyl)phenyl)-5,5-dimethyl-4-oxo-2-thioxoimidazolidin-1-yl)phenyl)butanamide]", "values": [{"measurement": "IC50", "setting": "[1]", "result": 0.43, "unit": "µM"}]}, {"compound": "CC1(C)C(=O)N(c2ccc(C#N)c(Cl)c2F)C(=S)N1c1ccc(CCCC(N)=O)cc1", "note": "[Example 9, 4-(4-(3-(3-chloro-4-cyano-2-fluorophenyl)-5,5-dimethyl-4-oxo-2-thioxoimidazolidin-1-yl)phenyl)butanamide]", "values": [{"measurement": "IC50", "setting": "[1]", "result": 0.59, "unit": "µM"}]}, {"compound": "CNC(=O)CCCc1ccc(N2C(=S)N(c3ccc(C#N)c(C(F)(F)F)c3F)C(=O)C23CCC3)cc1", "note": "[Example 10, 4-(4-(7-(4-cyano-2-fluoro-3-(trifluoromethyl)phenyl)-8-oxo-6-thioxo-5,7-diazaspiro[3.4]octan-5-yl)phenyl)-N-methylbutanamide]", "values": [{"measurement": "IC50", "setting": "[1]", "result": 0.42, "unit": "µM"}]}, {"compound": "CNC(=O)CCCc1ccc(N2C(=S)N(c3ccc(C#N)c(Cl)c3F)C(=O)C23CCC3)cc1", "note": "[Example 11, 4-(4-(7-(3-chloro-4-cyano-2-fluorophenyl)-8-oxo-6-thioxo-5,7-diazaspiro[3.4]octan-5-yl)phenyl)-N-methylbutanamide]", "values": [{"measurement": "IC50", "setting": "[1]", "result": 0.54, "unit": "µM"}]}, {"compound": "CN(C)C(=O)CCCc1ccc(N2C(=S)N(c3ccc(C#N)c(C(F)(F)F)c3F)C(=O)C2(C)C)cc1", "note": "[Example 12, 4-{4-[3-(4-Cyano-2-fluoro-3-trifluoromethyl-phenyl)-5,5-dimethyl-4-oxo-2-thioxo-imidazolidin-1-yl]-phenyl}-N,N-dimethyl-butyramide]", "values": [{"measurement": "IC50", "setting": "[1]", "result": 0.61, "unit": "µM"}]}, {"compound": "COc1c(C#N)ccc(N2C(=O)C(C)(C)N(c3ccc(CCCC(=O)N(C)C)cc3)C2=S)c1F", "note": "[Example 13, 4-{4-[3-(4-Cyano-2-fluoro-3-methoxy-phenyl)-5,5-dimethyl-4-oxo-2-thioxo-imidazolidin-1-yl]-phenyl}-N,N-dimethyl-butyramide]", "values": [{"measurement": "IC50", "setting": "[1]", "result": 1.06, "unit": "µM"}]}, {"compound": "CN(C)C(=O)CCCc1ccc(N2C(=S)N(c3ccc(C#N)c(Cl)c3F)C(=O)C2(C)C)cc1", "note": "[Example 14, 4-{4-[3-(3-Chloro-4-cyano-2-fluoro-phenyl)-5,5-dimethyl-4-oxo-2-thioxo-imidazolidin-1-yl]-phenyl}-N,N-dimethyl-butyramide]", "values": [{"measurement": "IC50", "setting": "[1]", "result": 0.69, "unit": "µM"}]}, {"compound": "CNC(=O)CCOc1ccc(N2C(=S)N(c3ccc(C#N)c(C(F)(F)F)c3F)C(=O)C2(C)C)cc1", "note": "[Example 15, 3-(4-(3-(4-cyano-2-fluoro-3-(trifluoromethyl)phenyl)-5,5-dimethyl-4-oxo-2-thioxoimidazolidin-1-yl)phenoxy)-N-methylpropanamide]", "values": [{"measurement": "IC50", "setting": "[1]", "result": 0.45, "unit": "µM"}]}, {"compound": "CNC(=O)CCOc1ccc(N2C(=S)N(c3ccc(C#N)c(Cl)c3F)C(=O)C2(C)C)cc1", "note": "[Example 16, 3-(4-(3-(3-chloro-4-cyano-2-fluorophenyl)-5,5-dimethyl-4-oxo-2-thioxoimidazolidin-1-yl)phenoxy)-N-methylpropanamide]", "values": [{"measurement": "IC50", "setting": "[1]", "result": 0.58, "unit": "µM"}]}, {"compound": "CNC(=O)COCc1ccc(N2C(=S)N(c3ccc(C#N)c(C(F)(F)F)c3F)C(=O)C2(C)C)cc1", "note": "[Example 17, 2-((4-(3-(4-cyano-2-fluoro-3-(trifluoromethyl)phenyl)-5,5-dimethyl-4-oxo-2-thioxoimidazolidin-1-yl)benzyl)oxy)-N-methylacetamide]", "values": [{"measurement": "IC50", "setting": "[1]", "result": 0.53, "unit": "µM"}]}, {"compound": "CNC(=O)COCc1ccc(N2C(=S)N(c3ccc(C#N)c(Cl)c3F)C(=O)C2(C)C)cc1", "note": "[Example 18, 2-((4-(3-(3-chloro-4-cyano-2-fluorophenyl)-5,5-dimethyl-4-oxo-2-thioxoimidazolidin-1-yl)benzyl)oxy)-N-methylacetamide]", "values": [{"measurement": "IC50", "setting": "[1]", "result": 0.56, "unit": "µM"}]}, {"compound": "CC1(C)C(=O)N(c2ccc(C#N)c(C(F)(F)F)c2F)C(=S)N1c1ccc(CCCc2ncc[nH]2)cc1", "note": "[Example 19, 4-(3-(4-(3-(1H-imidazol-2-yl)propyl)phenyl)-4,4-dimethyl-5-oxo-2-thioxoimidazolidin-1-yl)-3-fluoro-2-(trifluoromethyl)benzonitrile]", "values": [{"measurement": "IC50", "setting": "[1]", "result": 0.76, "unit": "µM"}]}, {"compound": "CC1(C)C(=O)N(c2ccc(C#N)c(Cl)c2F)C(=S)N1c1ccc(CCCc2ncc[nH]2)cc1", "note": "[Example 20, 2-Chloro-3-fluoro-4-(3-{4-[3-(1H-imidazol-2-yl)-propyl]-phenyl}-4,4-dimethyl-5-oxo-2-thioxo-imidazolidin-1-yl)-benzonitrile]", "values": [{"measurement": "IC50", "setting": "[1]", "result": 2.14, "unit": "µM"}]}, {"compound": "COc1c(C#N)ccc(N2C(=O)C(C)(C)N(c3ccc(CCCc4ncc[nH]4)cc3)C2=S)c1F", "note": "[Example 21, 3-Fluoro-4-(3-{4-[3-(1H-imidazol-2-yl)-propyl]-phenyl}-4,4-dimethyl-5-oxo-2-thioxo-imidazolidin-1-yl)-2-methoxy-benzonitrile]", "values": [{"measurement": "IC50", "setting": "[1]", "result": 1.83, "unit": "µM"}]}, {"compound": "CNC(=O)C(C)(C)CCc1ccc(N2C(=S)N(c3ccc(C#N)c(C(F)(F)F)c3F)C(=O)C2(C)C)cc1", "note": "[Example 22, 4-{4-[3-(4-Cyano-2-fluoro-3-trifluoromethyl-phenyl)-5,5-dimethyl-4-oxo-2-thioxo-imidazolidin-1-yl]-phenyl}-2,2,N-trimethyl-butyramide]", "values": [{"measurement": "IC50", "setting": "[1]", "result": 0.6, "unit": "µM"}]}, {"compound": "CNC(=O)C(C)(C)CCc1ccc(N2C(=S)N(c3ccc(C#N)c(OC)c3F)C(=O)C2(C)C)cc1", "note": "[Example 23, 4-{4-[3-(4-Cyano-2-fluoro-3-methoxy-phenyl)-5,5-dimethyl-4-oxo-2-thioxo-imidazolidin-1-yl]-phenyl}-2,2,N-trimethyl-butyramide]", "values": [{"measurement": "IC50", "setting": "[1]", "result": 0.89, "unit": "µM"}]}, {"compound": "CNC(=O)C(C)(C)CCc1ccc(N2C(=S)N(c3ccc(C#N)c(Cl)c3F)C(=O)C2(C)C)cc1", "note": "[Example 24, 4-{4-[3-(3-Chloro-4-cyano-2-fluoro-phenyl)-5,5-dimethyl-4-oxo-2-thioxo-imidazolidin-1-yl]-phenyl}-2,2,N-trimethyl-butyramide]", "values": [{"measurement": "IC50", "setting": "[1]", "result": 1.09, "unit": "µM"}]}, {"compound": "CNC(=O)C(C)(C)CCc1ccc(N2C(=S)N(c3ccc(C#N)c(C(F)(F)F)c3F)C(=O)C23CCC3)cc1", "note": "[Example 25, 4-{4-[7-(4-Cyano-2-fluoro-3-trifluoromethyl-phenyl)-8-oxo-6-thioxo-5,7-diaza-spiro[3.4]oct-5-yl]-phenyl}-2,2,N-trimethyl-butyramide]", "values": [{"measurement": "IC50", "setting": "[1]", "result": 0.82, "unit": "µM"}]}, {"compound": "CNC(=O)C(C)(C)CCc1ccc(N2C(=S)N(c3ccc(C#N)c(OC)c3F)C(=O)C23CCC3)cc1", "note": "[Example 26, 4-{4-[7-(4-Cyano-2-fluoro-3-methoxy-phenyl)-8-oxo-6-thioxo-5,7-diaza-spiro[3.4]oct-5-yl]-phenyl}-2,2,N-trimethyl-butyramide]", "values": [{"measurement": "IC50", "setting": "[1]", "result": 0.97, "unit": "µM"}]}]}
